US10717716B2, “1,3,4-oxadiazole derivative compounds as histone deacetylase 6 inhibitor, and the pharmaceutical composition comprising the same” (Chong Kun Dang Pharmaceutical Corp., priority 2015, dated 2020)

Biological target: T1, human recombinant HDAC6 (Homo sapiens, UniProt Q9UBN7)
T1 construct: purchased Calbiochem 382180
T1 sequence (Q9UBN7 1-1215): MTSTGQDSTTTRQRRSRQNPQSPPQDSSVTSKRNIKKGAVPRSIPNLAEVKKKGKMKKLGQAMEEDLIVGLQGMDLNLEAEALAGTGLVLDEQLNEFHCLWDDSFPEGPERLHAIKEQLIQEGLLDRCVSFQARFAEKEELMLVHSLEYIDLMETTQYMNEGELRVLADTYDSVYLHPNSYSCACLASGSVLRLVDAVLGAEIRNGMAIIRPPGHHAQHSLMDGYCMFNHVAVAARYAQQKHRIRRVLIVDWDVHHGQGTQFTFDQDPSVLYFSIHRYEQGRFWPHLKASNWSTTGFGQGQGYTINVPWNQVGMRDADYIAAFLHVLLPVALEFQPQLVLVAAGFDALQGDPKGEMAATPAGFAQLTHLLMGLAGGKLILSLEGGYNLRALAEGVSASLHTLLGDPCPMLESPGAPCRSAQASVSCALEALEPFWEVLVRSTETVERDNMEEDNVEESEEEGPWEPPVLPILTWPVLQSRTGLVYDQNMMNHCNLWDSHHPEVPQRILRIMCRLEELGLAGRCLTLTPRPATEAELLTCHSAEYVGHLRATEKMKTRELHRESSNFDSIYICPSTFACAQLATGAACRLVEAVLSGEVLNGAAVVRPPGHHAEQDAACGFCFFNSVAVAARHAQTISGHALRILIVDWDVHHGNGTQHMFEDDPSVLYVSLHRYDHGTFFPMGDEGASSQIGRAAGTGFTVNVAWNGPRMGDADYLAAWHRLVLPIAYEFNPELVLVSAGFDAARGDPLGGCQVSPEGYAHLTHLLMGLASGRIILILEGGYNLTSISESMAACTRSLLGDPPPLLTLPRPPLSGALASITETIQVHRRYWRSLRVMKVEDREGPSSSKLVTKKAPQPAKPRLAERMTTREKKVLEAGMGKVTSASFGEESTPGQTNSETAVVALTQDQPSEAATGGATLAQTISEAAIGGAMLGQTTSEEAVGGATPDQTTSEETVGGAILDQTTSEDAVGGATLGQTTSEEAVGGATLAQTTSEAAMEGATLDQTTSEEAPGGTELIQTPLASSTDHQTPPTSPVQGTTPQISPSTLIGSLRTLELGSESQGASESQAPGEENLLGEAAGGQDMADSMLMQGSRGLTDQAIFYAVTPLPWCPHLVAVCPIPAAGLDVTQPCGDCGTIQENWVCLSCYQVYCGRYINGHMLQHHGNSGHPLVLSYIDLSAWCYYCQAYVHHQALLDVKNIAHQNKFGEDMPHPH
Experiment: HDAC6 enzyme activity inhibition assay (HDAC Fluorimetric Drug Discovery Kit)
Format: biochemical
Conditions: for HDAC6 selectivity (fold): HDAC6 over HDAC1; for IC50: human recombinant HDAC6, same protocol as HDAC1, read-out: HDAC6
How it was run: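 Human recombinant HDAC1 or HDAC6 (0.3 μg) reacted with 10 μM Fluor de Lys-SIRT1 substrate and 5-fold compound dilutions for 60 min at 30 °C. Developer II added for 30 min, fluorescence read at Ex 360/Em 460; IC50 calculated from the readings.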

Structure (SMILES)	HDAC6 selectivity (fold)	IC50
O=C(N1CCOCC1)N(Cc1ccc(-c2nnc(C(F)(F)F)o2)cc1F)C12CC3CC(CC(C3)C1)C2 [Compound 21931, N-((3s,5s,7s)-adamantan-1-yl)-N-(2-fluoro-4-(5-(trifluoromethyl)-1,3,4-oxadiazol-2-yl)benzyl)morpholine-4-carboxamide]	6 fold	1740 nM
O=C(N1CCOCC1)N(Cc1ccc(-c2nnc(C(F)F)o2)cc1F)CC12CC3CC(CC(C3)C1)C2 [Compound 21932, N-(((3r,5r,7r)-adamantan-1-yl)methyl)-N-(4-(5-(difluoromethyl)-1,3,4-oxadiazol-2-yl)-2-fluorobenzyl)morpholine-4-carboxamide]	15 fold	684 nM
O=C(N1CCOCC1)N(Cc1ccc(-c2nnc(C(F)(F)F)o2)cc1F)CC12CC3CC(CC(C3)C1)C2 [Compound 21933, N-(((3r,5r,7r)-adamantan-1-yl)methyl)-N-(2-fluoro-4-(5-(trifluoromethyl)-1,3,4-oxadiazol-2-yl)benzyl)morpholine-4-carboxamide]	4 fold	2410 nM
CCN1C[C@@H](C)N(Cc2ccc(N(Cc3ccc(-c4nnc(C(F)F)o4)cc3F)C(=O)N3CCS(=O)(=O)CC3)cc2)[C@@H](C)C1 [Compound 21934, N-(4-(5-(difluoromethyl)-1,3,4-oxadiazol-2-yl)-2-fluorobenzyl)-N-(4-(((2R,6S)-4-ethyl-2,6-dimethylpiperazin-1-yl)methyl)phenyl)thiomorpholine-4-carboxamide 1,1-dioxide]	15 fold	667 nM
CCN1[C@H](C)CN(Cc2ccc(N(Cc3ccc(-c4nnc(C(F)F)o4)cc3F)C(=O)N3CCS(=O)(=O)CC3)cc2)C[C@@H]1C [Compound 21935, N-(4-(5-(difluoromethyl)-1,3,4-oxadiazol-2-yl)-2-fluorobenzyl)-N-(4-(((3S,5R)-4-ethyl-3,5-dimethylpiperazin-1-yl)methyl)phenyl)thiomorpholine-4-carboxamide 1,1-dioxide]	38 fold	265 nM
O=C(N1CCN(C2COC2)CC1)N(Cc1ccc(-c2nnc(C(F)F)o2)cc1)c1ccc(F)cc1 [Compound 21939, N-(4-(5-(Difluoromethyl)-1,3,4-oxadiazol-2-yl)benzyl)-N-(4-fluorophenyl)-4-(oxetan-3-yl)piperazine-1-carboxamide]	62 fold	161 nM
O=C(N1CCN(C2COC2)CC1)N(Cc1ccc(-c2nnc(C(F)F)o2)cc1)c1ccc(Cl)cc1 [Compound 21945, N-(4-Chlorophenyl)-N-(4-(5-(difluoromethyl)-1,3,4-oxadiazol-2-yl)benzyl)-4-(oxetan-3-yl)piperazine-1-carboxamide]	52 fold	193 nM
COc1ccc(N(Cc2ccc(-c3nnc(C(F)F)o3)cc2)C(=O)N2CCN(C3COC3)CC2)cc1 [Compound 21951, N-(4-(5-(Difluoromethyl)-1,3,4-oxadiazol-2-yl)benzyl)-N-(4-methoxyphenyl)-4-(oxetan-3-yl)piperazine-1-carboxamide]	26 fold	391 nM
COc1ccc(N(Cc2ccc(-c3nnc(C(F)F)o3)cc2F)C(=O)N2CCN(C3COC3)CC2)cc1 [Compound 21952, N-(4-(5-(Difluoromethyl)-1,3,4-oxadiazol-2-yl)-2-fluorobenzyl)-N-(4-methoxyphenyl)-4-(oxetan-3-yl)piperazine-1-carboxamide]	58 fold	172 nM

Further compounds by falling IC50, results first:

HDAC6 selectivity (fold)	IC50	Structure (SMILES)
62 fold	160 nM	COc1ccc(N(Cc2ccc(-c3nnc(C(F)F)o3)cn2)C(=O)N2CCN(C3COC3)CC2)cc1 [Compound 21953, N-((5-(5-(Difluoromethyl)-1,3,4-oxadiazol-2-yl)pyridin-2-yl)methyl)-N-(4-methoxyphenyl)-4-(oxetan-3-yl)piperazine-1-carboxamide]
64 fold	157 nM	COc1cccc(N(Cc2ccc(-c3nnc(C(F)F)o3)cn2)C(=O)N2CCN(C3COC3)CC2)c1 [Compound 21950, N-((5-(5-(Difluoromethyl)-1,3,4-oxadiazol-2-yl)pyridin-2-yl)methyl)-N-(3-methoxyphenyl)-4-(oxetan-3-yl)piperazine-1-carboxamide]
81 fold	123 nM	O=C(N1CCN(C2COC2)CC1)N(Cc1ccc(-c2nnc(C(F)F)o2)cc1F)c1ccc(Cl)cc1 [Compound 21946, N-(4-Chlorophenyl)-N-(4-(5-(difluoromethyl)-1,3,4-oxadiazol-2-yl)-2-fluorobenzyl)-4-(oxetan-3-yl)piperazine-1-carboxamide]
91 fold	110 nM	O=C(N1CCN(C2COC2)CC1)N(Cc1ccc(-c2nnc(C(F)F)o2)cc1)c1cccc(F)c1 [Compound 21936, N-(4-(5-(Difluoromethyl)-1,3,4-oxadiazol-2-yl)benzyl)-N-(3-fluorophenyl)-4-(oxetan-3-yl)piperazine-1-carboxamide]
112 fold	90 nM	O=C(N1CCN(C2COC2)CC1)N(Cc1ccc(-c2nnc(C(F)F)o2)cn1)c1ccc(Cl)cc1 [Compound 21947, N-(4-Chlorophenyl)-N-((5-(5-(difluoromethyl)-1,3,4-oxadiazol-2-yl)pyridin-2-yl)methyl)-4-(oxetan-3-yl)piperazine-1-carboxamide]
113 fold	89 nM	O=C(N1CCN(C2COC2)CC1)N(Cc1ccc(-c2nnc(C(F)F)o2)cc1F)c1ccccc1 [Compound 21955, N-(4-(5-(Difluoromethyl)-1,3,4-oxadiazol-2-yl)-2-fluorobenzyl)-4-(oxetan-3-yl)-N-phenylpiperazine-1-carboxamide]
118 fold	85 nM	O=C(N1CCN(C2COC2)CC1)N(Cc1ccc(-c2nnc(C(F)F)o2)cc1F)c1ccc(F)cc1 [Compound 21940, N-(4-(5-(Difluoromethyl)-1,3,4-oxadiazol-2-yl)-2-fluorobenzyl)-N-(4-fluorophenyl)-4-(oxetan-3-yl)piperazine-1-carboxamide]
122 fold	82 nM	O=C(N1CCN(C2COC2)CC1)N(Cc1ccc(-c2nnc(C(F)F)o2)cn1)c1cccc(F)c1 [Compound 21938, N-((5-(5-(Difluoromethyl)-1,3,4-oxadiazol-2-yl)pyridin-2-yl)methyl)-N-(3-fluorophenyl)-4-(oxetan-3-yl)piperazine-1-carboxamide]
153 fold	65 nM	O=C(N1CCN(C2COC2)CC1)N(Cc1ccc(-c2nnc(C(F)F)o2)cc1F)c1cccc(F)c1 [Compound 21937, N-(4-(5-(Difluoromethyl)-1,3,4-oxadiazol-2-yl)-2-fluorobenzyl)-N-(3-fluorophenyl)-4-(oxetan-3-yl)piperazine-1-carboxamide]
160 fold	62 nM	O=C(N1CCN(C2COC2)CC1)N(Cc1ccc(-c2nnc(C(F)F)o2)cc1)c1cccc(Cl)c1 [Compound 21942, N-(3-Chlorophenyl)-N-(4-(5-(difluoromethyl)-1,3,4-oxadiazol-2-yl)benzyl)-4-(oxetan-3-yl)piperazine-1-carboxamide]
176 fold	57 nM	O=C(N1CCOCC1)N(Cc1ccc(-c2nnc(C(F)F)o2)cc1F)c1ccc(F)c(Cl)c1 [Compound 21929, N-(3-chloro-4-fluorophenyl)-N-(4-(5-(difluoromethyl)-1,3,4-oxadiazol-2-yl)-2-fluorobenzyl)morpholine-4-carboxamide]
201 fold	50 nM	O=C(N1CCN(C2COC2)CC1)N(Cc1ccc(-c2nnc(C(F)F)o2)cn1)c1cccc(Cl)c1 [Compound 21944, N-(3-Chlorophenyl)-N-((5-(5-(difluoromethyl)-1,3,4-oxadiazol-2-yl)pyridin-2-yl)methyl)-4-(oxetan-3-yl)piperazine-1-carboxamide]
